Assay results reported in paper PMC6983066, “Real-Time Optical Detection of Isoleucine in Living Cells through a Genetically-Encoded Nanosensor” (Sensors (Basel, Switzerland), 2019).

Tests used:
[1] = tested on: T1, GEII nanosensor (ECFP-LivJ-Venus); test: Specificity analysis of purified GEII nanosensor with amino acids and metal ions (Venus/ECFP FRET ratio, microplate); format: biochemical, E. coli; details: 1 and 10 mM amino acid, purified sensor
T1 construct: His-tag (from pRSET-B); made in house; host or cells: E. coli BL21 (DE3)
Method: The FRET ratio analysis was performed in 96-well microplate reader using the excitation filter/slits (430/20 nm) and emission filters/slits for ECFP (485/20 nm), and Venus (535/25 nm) respectively. Furthermore, the sensitivity of sensor protein was tested against 10 mM of different metals ions present in the human body i.e., NaCl, CaCl2, MgCl2, and KCl.

LivJ = LivJ binding protein; no reference given; cited from earlier work
E. coli BL21(DE3) cells = test: Monitoring of isoleucine in living bacterial cells expressing GEII; format: cell-based; details: 10 mM amino acid, 45 min
Method: For monitoring of isoleucine in bacterial cells, the E. coli BL21(DE3) containing pRSET-B-GEII were incubated for 48 h at 21 °C. For appropriate protein folding of nanosensor protein, the culture was stored in 4 °C overnight. The bacterial cells were centrifuged and the resultant pellet of the bacterial cells was resuspended in MOPS buffer (20 mM). Twenty microliter 10 mM isoleucine was added to 180 µL resuspended bacterial cell in the wells of microplate. The ratio of fluorescence emission intensities of Venus/ECFP was recorded for 45 min.

| SMILES | change in FRET ratio of GEII with amino acid [1] | Kd (LivJ) [µM] | FRET ratio change of GEII in E. coli cells (E. coli BL21(DE3) cells) |
| --- | --- | --- | --- |
| C[C@H](N)C(=O)O [Alanine] | minimal |  |  |
| N[C@@H](CS)C(=O)O [Cysteine] | minimal |  |  |
| N[C@@H](CCC(=O)O)C(=O)O [Glutamate] | minimal |  |  |
| CC[C@H](C)[C@H](N)C(=O)O [Isoleucine] | maximum | 0.9 | maximum FRET ratio change |
| CC(C)C[C@H](N)C(=O)O [Leucine] | only mildly | 2.3 |  |
| CSCC[C@H](N)C(=O)O [Methionine] | minimal |  |  |
| N[C@@H](CO)C(=O)O [Serine] | minimal |  |  |
| CC(C)[C@H](N)C(=O)O [Valine] | minimal | 4 |  |
| N=C(N)NCCC[C@H](N)C(=O)O [arginine] | minimal |  |  |
| NC(=O)C[C@H](N)C(=O)O [asparagine] | minimal |  |  |
| N[C@@H](CC(=O)O)C(=O)O [aspartic acid] | minimal |  |  |
| NC(=O)CC[C@H](N)C(=O)O [glutamine] | minimal |  |  |
| NCC(=O)O [glycine] | minimal |  |  |
| N[C@@H](Cc1c[nH]cn1)C(=O)O [histidine] | minimal |  |  |
| NCCCC[C@H](N)C(=O)O [lysine] | minimal |  |  |
